In US9341616B2, “Sweet taste receptor chimeric proteins and use thereof” (AJINOMOTO CO., INC., priority 2014, dated 2016):
Residues, ends and D or L forms follow the SMILES beside them.

Assays:
hT1R2/hT1R3 = target: T1, hT1R2/hT1R3 (Homo sapiens, UniProt Q7RTX0+Q8TE23, C757R); experiment: Intracellular calcium assay (ΔF/F, S/N ratio) in HEK293E cells expressing hT1R2 and hT1R3 with Gα15-trans48LD; assay type: cell-based;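 also: fluorescence read over 120 s after adding sweet stimulant across several concentrations, S/N taken as highest over lowest ΔF/F, higher meaning more sensitive detection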
T1 construct: expressed in transfected cells; host or cells: HEK293E
T1 sequence (Q8TE23 20-839): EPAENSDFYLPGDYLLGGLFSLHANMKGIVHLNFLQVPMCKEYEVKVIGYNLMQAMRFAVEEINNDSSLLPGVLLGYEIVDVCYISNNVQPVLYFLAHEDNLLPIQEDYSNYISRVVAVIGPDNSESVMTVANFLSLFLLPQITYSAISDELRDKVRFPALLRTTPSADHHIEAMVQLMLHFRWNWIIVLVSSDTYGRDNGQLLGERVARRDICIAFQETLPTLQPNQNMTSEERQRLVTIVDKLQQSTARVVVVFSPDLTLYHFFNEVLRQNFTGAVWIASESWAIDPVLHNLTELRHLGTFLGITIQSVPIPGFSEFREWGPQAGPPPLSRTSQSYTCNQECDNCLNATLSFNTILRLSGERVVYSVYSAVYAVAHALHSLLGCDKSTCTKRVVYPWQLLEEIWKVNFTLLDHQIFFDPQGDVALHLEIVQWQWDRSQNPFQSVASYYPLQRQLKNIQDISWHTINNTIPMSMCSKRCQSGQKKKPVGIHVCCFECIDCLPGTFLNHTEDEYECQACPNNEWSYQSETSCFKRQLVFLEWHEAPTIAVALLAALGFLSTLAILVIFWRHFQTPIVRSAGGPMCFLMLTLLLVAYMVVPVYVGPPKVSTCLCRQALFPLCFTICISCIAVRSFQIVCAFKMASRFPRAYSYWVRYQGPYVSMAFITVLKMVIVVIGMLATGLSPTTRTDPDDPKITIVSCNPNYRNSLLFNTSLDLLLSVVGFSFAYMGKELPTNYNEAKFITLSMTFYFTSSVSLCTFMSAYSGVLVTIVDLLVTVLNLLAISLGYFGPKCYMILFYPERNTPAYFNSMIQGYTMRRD
T1 sequence (Q7RTX0 21-852 C757R): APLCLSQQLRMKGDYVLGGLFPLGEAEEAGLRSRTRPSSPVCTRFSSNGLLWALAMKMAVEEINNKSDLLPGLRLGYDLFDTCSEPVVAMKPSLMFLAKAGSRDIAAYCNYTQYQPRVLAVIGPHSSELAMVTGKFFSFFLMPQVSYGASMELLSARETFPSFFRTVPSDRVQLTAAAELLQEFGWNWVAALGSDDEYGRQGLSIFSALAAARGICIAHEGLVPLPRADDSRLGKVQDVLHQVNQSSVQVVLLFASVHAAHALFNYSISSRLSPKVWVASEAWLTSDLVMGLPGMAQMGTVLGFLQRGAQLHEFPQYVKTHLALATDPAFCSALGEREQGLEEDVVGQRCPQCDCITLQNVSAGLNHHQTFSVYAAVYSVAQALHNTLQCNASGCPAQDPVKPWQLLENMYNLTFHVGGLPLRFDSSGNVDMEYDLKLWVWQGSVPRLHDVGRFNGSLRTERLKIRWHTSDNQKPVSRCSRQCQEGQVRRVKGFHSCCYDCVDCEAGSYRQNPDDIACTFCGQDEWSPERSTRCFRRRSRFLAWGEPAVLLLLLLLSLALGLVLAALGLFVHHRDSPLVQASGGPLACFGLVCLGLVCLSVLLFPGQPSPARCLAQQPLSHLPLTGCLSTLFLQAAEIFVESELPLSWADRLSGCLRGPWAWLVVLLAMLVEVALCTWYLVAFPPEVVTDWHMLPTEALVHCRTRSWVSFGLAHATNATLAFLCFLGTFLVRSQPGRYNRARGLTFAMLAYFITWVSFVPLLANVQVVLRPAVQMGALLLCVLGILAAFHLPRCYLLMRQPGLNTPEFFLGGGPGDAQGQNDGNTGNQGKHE
Procedure: The HEK293E cells maintained by using the DMEM/Ham's F-12 medium (Nakarai Tesque) containing 10% fetal bovine serum ([sequence]) and 1% Pen Strep (GIBCO) were washed with D-PBS(−) (Nakarai Tesque), and collected from the flask by using 0.25% Trypsin EDTA (GIBCO). The cells were centrifuged (1,200 rpm, 3 minutes), and after the supernatant was removed, suspended in 5% FBS DMEM/Ham's F-12 at a density of 0.75×10^7 cell/ml. This suspension (10 ml) was put into a 150 cm^3 flask (IWAKI), and culture was performed overnight (37° C., 5% CO2).
After the gene transfer, the cells were washed with D-PBS(−), then removed from the flask by using 0.25% Trypsin EDTA (GIBCO), and collected. […] This cell suspension was put into wells of D-Lysine coat 96-well plate (BD bioscience) in such a volume that the cell count is 7.0×10^4 cells/well, and the cells were cultured overnight.
After the culture, all the medium of the 96 wells were discarded. […] After the staining, 50 μl of a solution of stimulant (sweet taste substance) prepared with the assay buffer was added to each well, and the fluorescence value was measured for 120 seconds after the stimulation by using FDSSμEELL (Hamamatsu Photonics). […] The measurement and analysis of the fluorescence value was performed by using the software attached to FDSSμEELL (FDSS7000EX), and ΔF/F value was calculated in accordance with the following equation, and used for the evaluation. ΔF/F=(Maximum fluorescence value after stimulation−Minimum fluorescence value after stimulation)/(Fluorescence value before stimulation)
Furthermore, by using the ΔF/F values obtained when each sweet taste substance was added, the S/N ratio was calculated. Specifically, the S/N value was calculated by using the minimum value of ΔF/F obtained when each substance was added at various concentrations as noise (N) value, and the similarly obtained maximum value of ΔF/F as the signal (S) value, and used as an index for sensitivity of the measurement of the activity of each receptor.

hT1R2/mT1R3 = target: T2, hT1R2/mT1R3 (UniProt Q8TE23+Q925D8); experiment: Intracellular calcium assay (ΔF/F, S/N ratio) in HEK293E cells expressing hT1R2 and mT1R3 with Gα15-trans48LD; assay type: cell-based, human/mouse
T2 construct: expressed in transfected cells; host or cells: HEK293E
T2 sequence (Q8TE23 20-839): T1 sequence (Q8TE23 20-839)
T2 sequence (Q925D8 21-858): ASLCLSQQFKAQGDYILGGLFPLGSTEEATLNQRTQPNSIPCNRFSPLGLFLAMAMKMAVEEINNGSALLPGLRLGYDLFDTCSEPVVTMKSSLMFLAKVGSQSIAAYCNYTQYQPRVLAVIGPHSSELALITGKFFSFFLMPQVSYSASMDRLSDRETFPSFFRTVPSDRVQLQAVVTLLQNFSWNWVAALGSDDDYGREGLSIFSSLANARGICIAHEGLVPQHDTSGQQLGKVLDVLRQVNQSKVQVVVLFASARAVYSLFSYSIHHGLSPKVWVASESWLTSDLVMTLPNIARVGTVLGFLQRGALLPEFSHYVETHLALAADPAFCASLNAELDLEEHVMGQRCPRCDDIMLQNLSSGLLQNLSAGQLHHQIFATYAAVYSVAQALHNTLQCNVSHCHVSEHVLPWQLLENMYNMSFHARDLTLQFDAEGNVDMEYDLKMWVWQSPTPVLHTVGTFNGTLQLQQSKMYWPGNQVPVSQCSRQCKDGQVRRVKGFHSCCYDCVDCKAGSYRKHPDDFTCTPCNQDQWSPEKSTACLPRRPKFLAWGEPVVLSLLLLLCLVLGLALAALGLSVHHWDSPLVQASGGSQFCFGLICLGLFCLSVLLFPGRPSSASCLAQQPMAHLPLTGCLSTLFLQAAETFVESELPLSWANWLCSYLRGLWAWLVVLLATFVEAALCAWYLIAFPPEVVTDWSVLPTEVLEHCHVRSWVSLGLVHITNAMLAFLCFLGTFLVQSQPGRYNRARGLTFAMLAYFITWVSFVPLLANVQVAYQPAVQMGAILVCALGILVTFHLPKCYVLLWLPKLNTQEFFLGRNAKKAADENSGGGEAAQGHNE
Procedure: The HEK293E cells maintained by using the DMEM/Ham's F-12 medium (Nakarai Tesque) containing 10% fetal bovine serum ([sequence]) and 1% Pen Strep (GIBCO) were washed with D-PBS(−) (Nakarai Tesque), and collected from the flask by using 0.25% Trypsin EDTA (GIBCO). The cells were centrifuged (1,200 rpm, 3 minutes), and after the supernatant was removed, suspended in 5% FBS DMEM/Ham's F-12 at a density of 0.75×10^7 cell/ml. This suspension (10 ml) was put into a 150 cm^3 flask (IWAKI), and culture was performed overnight (37° C., 5% CO2). On the next day, the medium was exchanged with Opti-MEM (30 ml, Invitrogen, Life Technologies), a sweet taste receptor gene mixture (Gα15-trans48LD gene, various kinds of T1R2 chimeric genes, and various kinds of T1R3 chimeric genes, 63.8 μg in total) prepared by using Opti-MEM and Lipofectamin 2000 (Invitrogen, Life Technologies) was slowly added to the cell suspension, and incubation was performed (37° C., 5% CO2) for 6 hours to attain gene transfer.
After the gene transfer, the cells were washed with D-PBS(−), then removed from the flask by using 0.25% Trypsin EDTA (GIBCO), and collected. After the cell number was counted, the cells were suspended in the 5% FBS DMEM medium (2.78 mM glucose, GIBCO) at a density of 0.5×10^6 cell/ml. This cell suspension was put into wells of D-Lysine coat 96-well plate (BD bioscience) in such a volume that the cell count is 7.0×10^4 cells/well, and the cells were cultured overnight.
After the culture, all the medium of the 96 wells were discarded. 200 μl of the staining solution for measurement of intracellular calcium ion′ Calcium Assay Kit Express (Molecular Device), diluted 80 times with an assay buffer (20 mM HEPES, 146 mM NaCl, 1 mM MgSO4, 1.39 mM glucose, 1 mM CaC12, 2.5 mM Probenecid, 0.05% bovine serum albumin) was added to each well, and the plate was left standing at 37° C. for 30 minutes and at room temperature for 45 minutes to perform staining. After the staining, 50 μl of a solution of stimulant (sweet taste substance) prepared with the assay buffer was added to each well, and the fluorescence value was measured for 120 seconds after the stimulation by using FDSSμEELL (Hamamatsu Photonics). By measuring the fluorescence value (Ex. 480 nm, Em. 540 nm) before and after the stimulation, the change of the intracellular free calcium ion concentration caused by addition of the stimulant via a sweet taste receptor was quantitatively investigated. The measurement and analysis of the fluorescence value was performed by using the software attached to FDSSμEELL (FDSS7000EX), and ΔF/F value was calculated in accordance with the following equation, and used for the evaluation. ΔF/F=(Maximum fluorescence value after stimulation−Minimum fluorescence value after stimulation)/(Fluorescence value before stimulation)
Furthermore, by using the ΔF/F values obtained when each sweet taste substance was added, the S/N ratio was calculated. Specifically, the S/N value was calculated by using the minimum value of ΔF/F obtained when each substance was added at various concentrations as noise (N) value, and the similarly obtained maximum value of ΔF/F as the signal (S) value, and used as an index for sensitivity of the measurement of the activity of each receptor. That is, a higher S/N value means a higher sensitivity for detection of an interaction of a sweet taste receptor and a test substance, which makes it easier to detect stimulation with a sweet taste substance or sweet taste-regulating substance of a lower concentration.

[1] = Table 5, genes hT2/hT3 (hT1R2, hT1R3)
[2] = Table 6, genes hT2/hT3 (hT1R2, hT1Rm3)
[3] = Table 3, genes hT2/hT3 (hT1R2, hT1R3), max ΔF/F over min ΔF/F across concentrations
[4] = Table 4, genes hT2/hT3 (hT1R2, hT1R3)
[5] = Table 3, genes hT2/mT3 (hT1R2, mT1R3)
[6] = Table 4, genes hT2/mT3 (hT1R2, mT1R3)

SMILES | S/N (hT1R2/hT1R3; [1]) | S/N (hT1R2/hT1R3; [2]) | S/N (hT1R2/hT1R3; [3]) | S/N (hT1R2/hT1R3; [4]) | S/N (hT1R2/mT1R3; [5]) | S/N (hT1R2/mT1R3; [6])
COc1ccc(CCC(=O)c2c(O)cc(O[C@@H]3O[C@H](CO)[C@@H](O)[C@H](O)[C@H]3O[C@@H]3O[C@@H](C)[C@H](O)[C@@H](O)[C@H]3O)cc2O)cc1O [NHDC, neohesperidin dihydrochalcone] | 2.0 | 2.0 |  |  |  | 
OC[C@H]1O[C@@](CO)(O[C@H]2O[C@H](CO)[C@@H](O)[C@H](O)[C@H]2O)[C@@H](O)[C@@H]1O [Sucrose, sucrose] | 1.9 | 1.9 | 1.9 | 1.9 | 2.4 | 2.4
O=C1NS(=O)(=O)c2ccccc21.[Na] [Saccharin Na, sodium saccharin] | 2.5 | 2.5 | 2.5 | 2.5 | 2.8 | 2.8
COC(=O)[C@H](Cc1ccccc1)NC(=O)[C@@H](N)CC(=O)O [Aspartame, aspartame] (HELM PEPTIDE1{D.F.[CO[*:1]]}$$$$V2.0) | 1.6 | 1.6 | 1.6 | 1.6 | 2.3 | 2.3
COC(=O)[C@H](Cc1ccccc1)NC(=O)[C@H](CC(=O)O)NCCCc1ccc(OC)c(O)c1 [Advantame, advantame] | 3.2 | 3.2 | 3.2 | 3.2 | 4.6 | 4.6
CC1=CC(=O)NS(=O)(=O)O1 [Acesulfame K, acesulfame potassium] | 1.9 | 1.9 | 1.9 | 1.9 | 2.4 | 2.4
COC(=O)[C@H](Cc1ccccc1)NC(=O)[C@H](CC(=O)O)NCCC(C)(C)C [Neotame, neotame] | 2.9 | 2.9 | 2.9 | 2.9 | 3.4 | 3.4
C[C@H](NC(=Nc1ccc(C#N)cc1)NCC(=O)O)c1ccccc1 [SC-45647, [3-[(S)-1-phenylethyl]-2-(4-cyanophenyl)guanidino]acetic acid] | 3.0 | 3.0 | 3.0 | 3.0 | 3.9 | 3.9
OC[C@H]1O[C@H](O[C@]2(CCl)O[C@H](CCl)[C@@H](O)[C@@H]2O)[C@H](O)[C@@H](O)[C@H]1Cl [Sucralose, sucralose] | 3.3 | 3.3 | 3.3 | 3.3 | 4.0 | 4.0
